Results as given in patent US20100197610A1, “FRUCTOSE 1, 6 BISPHOSPHATE - A NOVEL ANTICONVULSANT DRUG” (Baylor College of Medicine, priority 2007, published 2010).

How the values were obtained:
memory consolidation = conditions: subcutaneous 0.3 μmol, chick (Gibbs and Summers, 2002); cited from earlier work
[1] = system: pilocarpine-induced seizures; assay: Pilocarpine model of acute seizures; assay type: in vivo, Sprague Dawley rats
Description: (§1) All animal experiments were carried out in accordance with the National Institutes of Health guide for the care and use of laboratory animals (NIH publication 8023, revised 1996) and with the approval of the local Animal Use Committee. Unless indicated, all chemicals were obtained from Sigma Chemical Co (St. Louis Mo.). Male, Sprague Dawley rats weighing 50-74 g (young) or 147-309 g (adult) were used in this study. Acute seizures were induced by kainic acid (KA; Ocean Produce Int., Canada), pilocarpine or pentylenetetrazole (PTZ) as previously described (Lian et al 2006). These models were chosen because they initiate seizures by different mechanisms and the seizures have a relatively gradual onset compared to seizures initiated by stimulation. There was no difference in the body weight of the animals receiving the different convulsants. For pilocarpine, kainic acid and PTZ, the mean weights were 219±5 g (range 163-275 g), 215±7 g (range 183-258 g), and 216±13 g (range 147-309 g), respectively. The animals in the drug treatment groups were not different in weight from the animals in the control groups.
(§2) After administration of KA (10 mg/kg, ip), pilocarpine (scopolamine methyl bromide 1 mg/kg, s.c followed 15 min later by 300 mg/kg, ip pilocarpine) or PTZ (50 mg/kg, ip) (Lian et al., 2006), animals were continuously monitored for seizure activity for at least 5 h after KA or pilocarpine and for 30 min after PTZ. Behavioral seizures were scored by an investigator blinded to the treatment. Latency to the first wet dog shake after KA, latency to the first forelimb clonus (after pilocarpine, kainic acid or PTZ) and the score and duration of seizures were measured. When at least 1 hour had passed without any head bobbing (for pilocarpine) or any wet dog shakes (for KA), seizures were considered over. Status epilepticus lasting longer than 4 hours (for KA) or 5 hours (for pilocarpine) were assigned 4 and 5 hours for seizure duration. For animals receiving PTZ, the seizure duration was defined as the period of tonic-clonic seizures. EEG recording in the hippocampus was conducted as previously described (Lian et al., 2004). After anesthesia, a recording electrode was placed in a burr hole centered at 3.0 mm posterior to bregma, 1.8 mm lateral to the midline and then lowered 3.0 mm. A ground screw and wire was placed over the frontal region in another burr hole. This assembly was fixed to the skull with dental cement.
(§3) Each animal was assigned the score of the most severe seizure observed. The behavioral seizures induced by KA or pilocarpine were scored according to an adjusted version of the scale of Racine (Bough et al., 2002): stage 1, wet dog shakes after KA or trembling after pilocarpine; stage 2, head bobbing and stereotypes; stage 3, unilateral forelimb clonus; stage 4, bilateral forelimb clonus; stage 5, rearing and falling; stage 6, jumping and/or running followed by falling. Death within 24 h was assigned stage 7.
(§4) Adult rats received either D-F1,6BP, sodium valproate (VPA, 0.3 g/kg), 2-DG (0.25, 0.5 g/kg) or normal saline (vehicle) intraperitoneally followed 1 h later by one of the convulsants. The dose for VPA was based on experimental evidence that doses from 0.1 to 0.4 g/kg (ip) are effective in animal models (Bough and Eagles, 2001; Manent et al., 2007). Three doses of F1,6BP (0.25, 0.5 and 1 g/kg) were tested with this dosing schedule. Two additional groups were administered F1,6BP (0.5 or 1 g/kg, n=5) after pilocarpine. In this experiment, the F1,6BP was given intraperitoneally at the first behavioral seizure, which was chewing movements of the jaw. Two additional sets of animals were fed the classic ketogenic diet (No. F3666; Bio-Serv, Frenchtown, N.J.). One set of animals was given the diet beginning on postnatal day 22-26 (KD-Yng) and maintained on this diet for 4 weeks. Thus the seizures were tested in this group when the animals had reached approximately the same age (50-54 days) as the majority of the animals tested. […]

[2] = system: kainic acid-induced seizures; assay: Kainic acid model of acute seizures; assay type: in vivo, Sprague Dawley rats
Description: as §1, §2, §3, §4

[3] = system: PTZ-induced generalized tonic-clonic seizures; assay: PTZ model of acute seizures; assay type: in vivo, Sprague Dawley rats
Description: as §1, §2
Adult rats received either D-F1,6BP, sodium valproate (VPA, 0.3 g/kg), 2-DG (0.25, 0.5 g/kg) or normal saline (vehicle) intraperitoneally followed 1 h later by one of the convulsants. The dose for VPA was based on experimental evidence that doses from 0.1 to 0.4 g/kg (ip) are effective in animal models (Bough and Eagles, 2001; Manent et al., 2007). Three doses of F1,6BP (0.25, 0.5 and 1 g/kg) were tested with this dosing schedule. Two additional groups were administered F1,6BP (0.5 or 1 g/kg, n=5) after pilocarpine. In this experiment, the F1,6BP was given intraperitoneally at the first behavioral seizure, which was chewing movements of the jaw. Two additional sets of animals were fed the classic ketogenic diet (No. F3666; Bio-Serv, Frenchtown, N.J.). One set of animals was given the diet beginning on postnatal day 22-26 (KD-Yng) and maintained on this diet for 4 weeks. Thus the seizures were tested in this group when the animals had reached approximately the same age (50-54 days) as the majority of the animals tested.
The latency to seizure onset, seizure score and seizure duration were averaged across animals in each group. Comparisons between groups were done with an analysis of variance with Bonferroni post hoc test. Statistical difference was defined as p<0.05.

[4] = 2-DG 0.25 and 0.5 g/kg, n=5 each
[5] = VPA 0.3 g/kg ip pretreatment, n=9

In the case of `O=CC[C@@H](O)[C@H](O)[C@H](O)CO` [2-DG, 2-deoxyglucose, reference compound], the “effect on memory consolidation” value (memory consolidation) is listed as “inhibit memory consolidation”, the “animals with a stage 3 seizure” value ([1]; 2-DG 0.25 g/kg, n=6) is listed as “only one animal” and the seizure duration ([1]; pretreatment with 2-DG) is listed as “decreasing”. The seizure score ([1]; pretreatment with 2-DG) was “decreasing”, the “appearance of the first wet dog shake” value ([2]; 2-DG 0.25 g/kg, n=6) was “delayed” and the “effect on the other seizure parameters” value ([2]; 2-DG 0.25 g/kg, n=6) was “no effect”. For the same compound, the anticonvulsant activity ([2]; 2-DG 0.5 g/kg, n=3) was “no additional activity”, the “animals that had seizures” value [3, 4] was “All animals” and the seizure latency [3, 4] was “not increased”. The seizure duration ([3]; 2-DG 0.25 g/kg) was “significantly shortened”.
In the case of `CCCC(CCC)C(=O)[O-].[Na+]` [VPA, sodium valproate, reference compound], the “animals with forelimb clonus” value ([1]; VPA 0.3 g/kg ip pretreatment) is reported as 6 out of 9, the animals that died [1, 5] is reported as “one died” and the mean seizure score [1, 5] is reported as “significantly reduced”. The seizure duration [1, 5] was “significantly reduced”, the “appearance of forelimb clonus” value ([2]; VPA 0.3 g/kg ip, n=6) was “but not the appearance of forelimb clonus” and the “appearance of wet dog shakes” value ([2]; VPA 0.3 g/kg ip, n=6) was “significantly delayed”. The duration of seizures ([2]; VPA 0.3 g/kg ip, n=6) was “decreased”, the seizure score ([2]; VPA 0.3 g/kg ip, n=6) was 4.5±0.2 and the seizure duration ([3]; VPA 0.3 g/kg) was 9 ± 4 s. For the same compound, the “animals with no generalized tonic-clonic seizures” value ([3]; VPA 0.3 g/kg, n=8) was “two animals” and the seizure latency ([3]; VPA 0.3 g/kg, the six animals with seizures) was 185 ± 27 s.
